Test results reported in patent US20210268075A1, “PHARMACEUTICAL COMPOSITION AND METHOD OF TREATMENT USING SERRATIOPEPTIDASE, MANNOSE OR ITS DERIVATIVE, AND OPTIONALLY ANTINFECTION AGENTS” (priority 2020, published 2021).

Tested on: E. Coli ATCC 8739
Test: In vitro suppression of bacterial growth from a biofilm on a plastic thread (transmittance of medium at 590 nm)
Assay type: cell-based
Conditions: 7 hours with Solution F/P, higher transmittance = less bacterial growth
Protocol: 1 ml of Stock E. Coli ATCC 8739 (Culture Count 10×10^8 CFU/ml) was diluted to 10 ml with buffered peptone water with NaCl. The 1 ml of resulting culture (10×10^7 CFU/ml) was diluted to 10 ml with buffered peptone water with NaCl to make E. Coli Culture (10×10^6 CFU/ml)
On first day 6 PM, Five (5) sterile test tubes were added with 50 ml of sterile Soybean Casein Digest Medium. These medium were inoculated with 1 ml of E. Coli culture (10×10^6 CFU/ml @ 6 PM. A thin plastic thread (0.1 mm OD) of the same length were suspended from the middle of all 5 test tubes and keep in overnight (17 hours) at 30° C.-35° C. • 2. On second day 11 AM, another Five (5) sterile test tubes were added with 50 ml of sterile Soybean Casein Digest Medium and 500 mg of Glucose. • a. 1 ml of Solution F (D-mannose solution) was added to test tube 1. • b. 1 ml of Solution P (Serrapeptidase solution) was added to test tube 2. • c. 1 ml of Solution F (D-Mannose solution) and 1 ml of Solution P (Serrapeptidase solution) was added to test tube 3.
The thin plastic thread was transferred from old test tube to new test tube on second day 11 AM. All 5 test tubes were kept at 30° C.-35° C. for 7 hours. • 3. On second day 6 PM, another Five (5) sterile test tubes were added with 50 ml of Sterile Soybean Casein Digest Medium. Transfer the thin plastic thread from old test tube to new test tube on second day at 6 PM. […]

Row | Compound | transmittance of test tube medium at 590 nm (Procedure 2: thick plastic thread (0.5 mm OD), then 1 ml Solution A overnight (17 hours) at 30-35° C.) | transmittance of test tube medium at 590 nm (Procedure 1: thin plastic thread (0.1 mm OD), overnight in fresh medium, then 1 ml Solution A^dil for 7 hours at 30-35° C.)
1 | O=C1CN(/N=C/c2ccc([N+](=O)[O-])o2)C(=O)N1 [A (Antibiotic), Nitrofurantoin Anhydrous] | 6.9 | –
2 | O=C1CN(/N=C/c2ccc([N+](=O)[O-])o2)C(=O)N1 [A^dil (Diluted Antibiotic), Nitrofurantoin Anhydrous] | – | 8.4
